Values of other authors in PubChem BioAssay AID1259410 (Chemical Carcinogenesis Research Information System (CCRIS), 2018).

Tested on: rodent tumor promotion studies, tumor incidence
Assay: CCRIS tumor promotion studies
[1] = Carcinogen: 7,12-DIMETHYLBENZ(A)ANTHRACENE, Doses [Carcinogen]: TOP, Route [Carcinogen]: DERMAL, Route [Promoter]: DERMAL, Species: MOUSE, Strain/Sex: FEMALE

SMILES: CCN(CC)CCCC(C)Nc1c2ccc(Cl)cc2nc2ccc(OC)cc12 (stereo not drawn)
- outcome (Carcinogen: N-NITROBIS(2-OXOPROPYL)AMINE, 60599-38-4, Doses [Carcinogen]: 10 MG/KG BW 1/WK FOR 3 WK, Doses [Promoter]: 0, 100 PPM IN DIET FOR 37 WK BEGINNING POST CARCINOGEN TREATMENT (STUDY DURATION: 40 WK), Route [Carcinogen]: SUBCUTANEOUS, Route [Promoter]: ORAL, Species: HAMSTER, Strain/Sex: SYRIAN/FEMALE): pancreas: adenocarcinoma; liver: hepatocellular adenoma or carcinoma
- outcome (Carcinogen: N-NITROBIS(2-OXOPROPYL)AMINE, 60599-38-4, Doses [Carcinogen]: 10 MG/KG BW 1/WK FOR 3 WK, Doses [Promoter]: 0, 300 PPM IN DIET FOR 37 WK BEGINNING POST CARCINOGEN TREATMENT (STUDY DURATION: 40 WK), Route [Carcinogen]: SUBCUTANEOUS, Route [Promoter]: ORAL, Species: HAMSTER, Strain/Sex: SYRIAN/FEMALE): liver: hepatocellular adenoma or carcinoma

SMILES: Cc1c(N(C)CS(=O)(=O)O)c(=O)n(-c2ccccc2)n1C
- outcome (Carcinogen: DIETHYLNITROSAMINE, 55-18-5, Doses [Carcinogen]: 0.O1% IN DRINKING WATER FOR 2 WK, Doses [Promoter]: 0.4% IN DRINKING WATER 5 D/ WK FOR 72 WK BEGINNING 1 WK POST CARCINOGEN (STUDY DURATION: 83 WK), Route [Carcinogen]: ORAL, Route [Promoter]: ORAL, Species: RAT, Strain/Sex: F344/MALE): liver neoplastic nodule, hepatocellular carcinoma ; kidney: adenoma

SMILES: CC(=O)O
- outcome (Carcinogen: LEAD SUBACETATE, 1335-32-6, Doses [Carcinogen]: 1% IN DIET FOR 18 MO, Doses [Promoter]: 0, 0.3, 1, 3, 6% IN DIET FOR 18 MO (STUDY DURATION: 79 WK), Doses [Promoter]: 0, 0.3, 1, 3, 6% IN DIET FOR 18 MO (STUDY DURATION: 79 WK), Route [Carcinogen]: ORAL, Route [Promoter]: ORAL, Species: RAT, Strain/Sex: SPRAGUE-DAWLEY/MALE): kidney: tumor

SMILES: Nc1ncn[nH]1
- outcome (Carcinogen: N-BIS(2-HYDROXYPROPYL)NITROSAMINE, Doses [Carcinogen]: 70 MG/100 G BW 1/WK FOR 4 WK, Doses [Promoter]: 2000 PPM IN DIET FOR 12 WK BEGINNING 1 WK AFTER INITIATION, Route [Carcinogen]: SUBCUTANEOUS, Route [Promoter]: ORAL, Species: RAT, Strain/Sex: WISTAR/MALE): thyroid gland: adenoma, carcinoma

SMILES: CC(C)(C)NC(=O)[C@H]1CC[C@H]2[C@@H]3CC=C4C=C(C(=O)O)CC[C@]4(C)[C@H]3CC[C@]12C
- outcome (Carcinogen: 3,2'-DIMETHYL-4-AMINOBIPHENYL, 13394-86-0, Doses [Carcinogen]: 50 MG/KG BW ONCE/2 WK FOR FIRST 20 WK, Doses [Promoter]: 0, 10, 50 MG/KG BW BY GAVAGE 3X/WK FOR 40 WK BEGINNING 20 WK POST CARCINOGEN TREATMENT (STUDY DURATION: 60 WK), Doses [Promoter]: 0, 10, 50 MG/KG BW BY GAVAGE 3X/WK FOR 40 WK BEGINNING 20 WK POST CARCINOGEN TREATMENT (STUDY DURATION: 60 WK), Route [Carcinogen]: SUBCUTANEOUS, Route [Promoter]: ORAL, Species: RAT, Strain/Sex: F344/MALE): prostate (ventral): adenocarcinoma

SMILES: Cc1ccc(O)c(O)c1
- outcome (Carcinogen: N-METHYL-N'-NITRO-N-NITROSOGUANIDINE, 70-25-7, Doses [Carcinogen]: 150 MG/KG IN DMSO ONCE, Doses [Promoter]: 0, 1.5% IN DIET FOR 51 WK BEGINNING 1 WK AFTER CARCINOGEN DOSE (STUDY DURATION: 52 WK), Route [Carcinogen]: GAVAGE, Route [Promoter]: ORAL, Species: RAT, Strain/Sex: F344/MALE): forestomach: squamous cell carcinoma; glandular stomach: adenocarcinoma

SMILES: CCCCCCCCCC(=O)OC
- outcome [1]: integumentary system (skin)

SMILES: Cc1ccc(O)cc1
- outcome [1]: integumentary system (skin)

SMILES: CCCCCCCCCCO
- outcome [1]: integumentary system (skin)

SMILES: O=[N+]([O-])c1ccc(F)c([N+](=O)[O-])c1
- outcome (Carcinogen: 7,12-DIMETHYLBENZ[A]ANTHRACENE, 57-97-6, Doses [Carcinogen]: 2.5 UG IN 200 µL ACETONE ONCE, Doses [Promoter]: 0, 0.1, 0.2% IN ACETONE/OLIVE OIL (4:1) 2/WK FOR 52 WK BEGINNING 2 WK POST CARCINOGEN DOSE (STUDY DURATION: 54 WK), Doses [Promoter]: 0, 0.1, 0.2% IN ACETONE/OLIVE OIL (4:1) 2/WK FOR 52 WK BEGINNING 2 WK POST CARCINOGEN DOSE (STUDY DURATION: 54 WK), Route [Carcinogen]: DERMAL, Route [Promoter]: DERMAL, Species: MOUSE, Strain/Sex: SENCAR/FEMALE): skin: tumor
- outcome (Carcinogen: 7,12-DIMETHYLBENZ[A]ANTHRACENE, 57-97-6, Doses [Carcinogen]: 100 NMOL ONCE, Doses [Promoter]: 0, 0.1, 0.2% 2/WK FOR 27 WK BEGINNING 2 WK POST CARCINOGEN DOSE (STUDY DURATION: 59 WK), Doses [Promoter]: 0, 0.1, 0.2% 2/WK FOR 27 WK BEGINNING 2 WK POST CARCINOGEN DOSE (STUDY DURATION: 59 WK), Route [Carcinogen]: DERMAL, Route [Promoter]: DERMAL, Species: MOUSE, Strain/Sex: SENCAR/FEMALE): skin: tumor

SMILES: C[S-].C[S-].N#[O+].N#[O+].N#[O+].N#[O+].[Fe].[Fe]
- outcome (Carcinogen: 7,12-DIMETHYLBENZ[A]ANTHRACENE, 57-97-6, Doses [Carcinogen]: 100 NMOL IN 0.2 ML ACETONE ONCE, Doses [Promoter]: 300 NMOL 2/WK FOR 37 WK (STUDY DURATION: 37 WK), Route [Carcinogen]: DERMAL, Route [Promoter]: DERMAL, Species: MOUSE, Strain/Sex: BALB/FEMALE): skin: papilloma or carcinoma
- outcome (Carcinogen: 7,12-DIMETHYLBENZ[A]ANTHRACENE, 57-97-6, Doses [Carcinogen]: 100 NMOL IN 0.2 ML ACETONE ONCE, Doses [Promoter]: 450 NMOL 2/WK FOR 37 WK (STUDY DURATION: 37 WK), Route [Carcinogen]: DERMAL, Route [Promoter]: DERMAL, Species: MOUSE, Strain/Sex: BALB/FEMALE): skin: papilloma or carcinoma
- outcome (Carcinogen: DIETHYLNITROSAMINE, 55-18-5, Doses [Carcinogen]: 25 MG/WK FOR 2 WK, Doses [Promoter]: 6 MG 2/WK FOR 114-669 D BEGINNING 2 WK POST LAST CARCINOGEN DOSE (STUDY DURATION: 669 D), Route [Carcinogen]: GAVAGE, Route [Promoter]: GAVAGE, Species: RAT, Strain/Sex: WISTAR): forestomach: papilloma

SMILES: O=c1cc(CO)occ1O
- outcome (Carcinogen: N-NITROSOBIS(2-HYDROXYPROPYL)AMINE;53609-64-6, Doses [Carcinogen]: 2000 MG/KG BW ONCE, Doses [Promoter]: 0, 0.002%, 0.008%, 0.03%, 0.125%, 0.5%, 2% IN DIET FOR 20 WK BEGINNING 1 WK POST CARCINOGEN TREATMENT (STUDY DURATION: 2, Doses [Promoter]: 0, 0.002%, 0.008%, 0.03%, 0.125%, 0.5%, 2% IN DIET FOR 20 WK BEGINNING 1 WK POST CARCINOGEN TREATMENT (STUDY DURATION: 2, Route [Carcinogen]: SUBCUTANEOUS, Route [Promoter]: ORAL, Species: RAT, Strain/Sex: F344/MALE): thyroid gland: adenoma, carcinoma

SMILES: Oc1ccc(/C=C/c2cc(O)cc(O)c2)cc1
- outcome (Carcinogen: N-METHYL-N-NITROSOUREA, 684-93-5, Doses [Carcinogen]: 50 MG/KG ONCE AT 7 WK OF AGE, Doses [Promoter]: 100 MG/KG DAILY FOR 5 D AT 2 WK OF AGE (STUDY DURATION: 37 WK), Route [Carcinogen]: INTRAPERITONEAL, Route [Promoter]: SUBCUTANEOUS, Species: RAT, Strain/Sex: SPRAGUE-DAWLEY/FEMALE): mammary gland: adenocarcinoma

SMILES: C=CCc1ccc(O)c(OC)c1
- outcome (Carcinogen: 1,2-DIMETHYLHYDRAZINE, 57-14-7 1-METHYL-1-NITROSOUREA, 684-93-5, Carcinogen: 1,2-DIMETHYLHYDRAZINE, 57-14-7 1-METHYL-1-NITROSOUREA, 684-93-5, Doses [Carcinogen]: 40 MG/KG 1,2-DIMETHYLHYDRAZINE IN 0.9% NACL SUBCUTANEOUS 3/WK IN FIRST WK FOLLOWED BY 20 MG 1-METHYL-1-NITROSOUREA/5 ML, Doses [Promoter]: 0, 0.8% IN DIET FOR 48 WK ADMINISTERED 1 WK POST CARCINOGEN DOSE (STUDY DURATION: 52 WK), Route [Carcinogen]: SUBCUTANEOUS, INTRAPERITONEAL, Route [Promoter]: ORAL, Species: RAT, Strain/Sex: F344/MALE): forestomach: papilloma

SMILES: CC1=C[C@H]2[C@@]3(O)[C@H](C)[C@@H](O)[C@]4(O)[C@H]([C@@H]3C=C(CO)C[C@]2(O)C1=O)C4(C)C
- outcome (Carcinogen: 2-(ACETYLAMINO)FLUORINE, Doses [Carcinogen]: TRANS-PLACENTAL, Route [Carcinogen]: TRANS-PLACENTAL, Route [Promoter]: INTRAPERITONEAL, Species: MOUSE, Strain/Sex: C57BL/MALE,FEMALE): liver
- outcome (Carcinogen: 7,12-DIMETHYLBENZ(A)ANTHRACENE, Doses [Carcinogen]: IG, Route [Carcinogen]: GAVAGE, Route [Promoter]: INTRAPERITONEAL, Species: RAT, Strain/Sex: FEMALE): mammary glands; hematopoietic system (leukemia, thymic)
- outcome (Carcinogen: 7,12-DIMETHYLBENZ(A)ANTHRACENE, Doses [Carcinogen]: TOP, Route [Carcinogen]: DERMAL, Route [Promoter]: INTRAPERITONEAL, Species: MOUSE, Strain/Sex: FEMALE): hematopoietic system (leukemia, nonthymic)
- outcome (Carcinogen: DIMETHYLNITROSAMINE, Doses [Carcinogen]: SC, Route [Carcinogen]: SUBCUTANEOUS, Route [Promoter]: INTRAPERITONEAL, Species: MOUSE, Strain/Sex: MALE,FEMALE): lung; liver

SMILES: CCCCCCCCCCCC1(CCCC(=O)OC2C(C)C3(O)C(C=C(CO)CC4(O)C(=O)C(C)=CC43)C3C(C)(C)C23OC(C)=O)OCC(C)(C)N1[O] (stereo not drawn)
- outcome (Carcinogen: 7,12-DIMETHYLBENZ[A]ANTHRACENE, 57-97-6, Doses [Carcinogen]: 100 NMOL ONCE, Doses [Promoter]: 0, 5 NMOL 2/WK FOR 24 WK BEGINNING 1 WK POST CARCINOGEN DOSE (STUDY DURATION: 25 WK), Route [Carcinogen]: DERMAL, Route [Promoter]: DERMAL, Species: MOUSE, Strain/Sex: NMRI/FEMALE): skin: tumor
